Test: Photolysis of thin films in petroleum jelly on quartz plates under a UV photolysis lamp
Type: physicochemical
Experimental: A UV photolysis lamp having a light flux of 320 mW equipped with a cutoff filter at 270-280 nm was used to evaluate the performance and stability of the sunscreen compositions prepared herein. With 3 min of exposure to the UV lamp (same position as sample, after the filter), a clear damage was observed on human skin. Typically, under hot sun, this sunburn process takes 30 min to an hour. Accordingly, the photolysis lamp used for analysis is considerably more intense than natural sunlight.
FIGS. 4A and 4B compare the stability of avobenzone dispersed in petroleum jelly with avobenzone encapsulated in encapsulated in zeolite nanoparticles (10% zeolite, 1% AB) dispersed in petroleum jelly.
FIG. 7 is a plot showing the long-term stability of avobenzone/nanozeolite formulations. The absorption spectra of a thin film of avobenzone encapsulated in zeolite nanoparticles (10% zeolite, 1% AB) dispersed in petroleum jelly on quartz plates was obtained following 0, 3, 5, and 12 hours of irradiation using a UV photolysis lamp.

Which “AB decomposition in the presence of 1% OMC (octinoxate)” value (petroleum jelly, photolysis for 4 hours, FIGS. 8A/8B) does the source give for `COc1ccc(C(=O)CC(=O)c2ccc(C(C)(C)C)cc2)cc1` [avobenzone] here?
Its value is “AB decomposition was observed after the first hour of photolysis”.

And the “degradation of avobenzone via UV spectroscopy (long-term stability)” value (thin film in petroleum jelly, 0, 3, 5 and 12 hours of irradiation, FIG. 7)?
The value was “complete degradation of the avobenzone was observed within four hours”.
